# Data reported in patent publication US20110009437A1, “CARBOXAMIDE-HETEROARYL DERIVATIVES FOR THE TREATMENT OF DIABETES” (MERCK PATENT GESELLSCHAFT MIT BESCHRANKTER HAFTUNG, priority 2008, published 2011).
# Target: T1, Glucokinase (Homo sapiens, UniProt P35557)
# T1 sequence (P35557 1-465): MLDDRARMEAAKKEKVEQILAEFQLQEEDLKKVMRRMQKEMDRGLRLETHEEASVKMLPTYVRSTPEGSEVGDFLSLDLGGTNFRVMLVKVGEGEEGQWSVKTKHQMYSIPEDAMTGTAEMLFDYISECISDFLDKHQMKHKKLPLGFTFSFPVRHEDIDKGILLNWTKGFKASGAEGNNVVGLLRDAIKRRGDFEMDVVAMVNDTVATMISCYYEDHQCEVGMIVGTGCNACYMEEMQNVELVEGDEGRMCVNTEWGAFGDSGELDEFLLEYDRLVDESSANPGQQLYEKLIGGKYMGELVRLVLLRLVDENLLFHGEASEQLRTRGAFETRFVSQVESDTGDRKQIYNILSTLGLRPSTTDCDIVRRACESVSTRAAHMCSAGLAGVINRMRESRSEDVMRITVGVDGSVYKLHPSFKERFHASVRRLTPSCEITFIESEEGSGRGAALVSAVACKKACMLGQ
# Experiment: Glucokinase Activation Screening Assay (coupled enzyme assay with PK/LDH)
# Assay type: biochemical
# Settings: human GK enzyme
# Description: GK activity (human or rat enzyme) is measured by a coupled enzyme assay using pyruvate kinase (PK) and lactate dehydrogenase (LDH) as coupling enzymes. GK activity is calculated from the decline in NADH monitored photometrically with a microtiter plate (MTP) reader at 340 nm. For screening purposes, the GK assay is routinely run in a 384-MTP format, in a total volume of 33 μl/well. 10 μl of the ATP-regeneration solution (in HEPES-buffer*, pH 7.0, 6.73 U/ml pyruvate kinase, 6.8 U/ml lactate dehydrogenase) and 10 μl of the glucokinase-/glucose solution (15 μg/ml, 6.6 mM glucose in HEPES-buffer*, pH 7.0; the concentration of the glucose stock-solution was 660 mM in Millipore H2O) were mixed together with […] of a 10% DMSO solution (in HEPES-buffer*, pH 7.0) containing 3.3-fold the amounts of the compounds to achieve final compound concentrations in the range between 1 nM to 30 μM (sometimes 300 μM) in the assay solution (s. below). The solutions were mixed for 5 sec, and after a centrifugation at 243×g for 5 min, the solutions were preincubated for 25 min at room temperature.
# The reaction was started by the addition of 10 μl of the NADH-/ATP-solution (4.29 mM NADH, 4.95 mM ATP, in HEPES-buffer*). The MTP was shaken for 5 sec., and then, the absorbance at 340 nm was monitored continuously in a MTP-reader (TECAN Spectro fluor plus) for the next 27 min (with a MTP-cycling time of 199 sec.). The final concentrations of the various components were as follows: 49.5 mM Hepes, pH 7.0, 1.49 mM PEP,1,3 mM NADH, 49.5 mM KCl, 4.96 mM MgCl2, 1.5 mM Mg-ATP, 1.98 mM DTT, 2.04 U/ml pyruvate kinase, 2.06 U/ml lactate-dehydrogenase, 0.91% DMSO, 0.15 μg/well glucokinase, and test compounds in the range between 1 nM and […] The change in the optical density (ΔOD340 nm) in the presence of the compound was expressed relative to the ΔOD340 nm, ctrl of the control incubation (in the presence of 2 mM glucose and 0.91% DMSO), taking into account the optical density of the blank sample (incubation in the absence of 2 mM glucose). For the determination of the half maximal effective concentration (EC50), the %-Ctrl-values were plotted in a semi-logarithmic graph against the conc. of the compound of interest. The data points were fitted to a sigmoid curve function (f(x)=((%-Ctrlmax−%-Ctrlmin)/(1−(EC50/x**^n(Hill)))+%-Ctrlmin)) by a non-linear regression analysis.
# *Hepes-buffer (50 mM Hepes, pH 7.0, 5 mM MgCl2, 50 mM KCl, 1.5 mM PEP, 0.1% BSA). DTT was added to the Hepes-buffer from a 200× stock solution (in Millipore H2O) freshly each day. The final concentration of DTT in the Hepes-buffer is 2 mM.
row,Compound,fold activation (human) [fold]
1,"CN(C)c1cc(C(=O)Nc2ccn(Cc3cccnc3)n2)cc(Oc2ccccc2)n1 [B2, 2-Dimethylamino-6-phenoxy-N-(1-pyridin-3-ylmethyl-1H-pyrazol-3-yl)-isonicotinamide]",3.3
2,"Cn1ccc(NC(=O)c2cc(Cl)nc(Oc3ccccc3)c2)n1 [B5, 2-Chloro-N-(1-methyl-1H-pyrazol-3-yl)-6-phenoxy-isonicotinamide]",1.3
3,"CN(Cc1ccccc1)c1cc(C(=O)Nc2ccn(C)n2)cc(Oc2ccccc2)n1 [B8, 2-(Benzyl-methyl-amino)-N-(1-methyl-1H-pyrazol-3-yl)-6-phenoxy-isonicotinamide]",1.4
4,"COCCN(C)c1cc(C(=O)Nc2ccn(C)n2)cc(Oc2ccccc2)n1 [B6, 2-[(2-Methoxy-ethyl)-methyl-amino]-N-(1-methyl-1H-pyrazol-3-yl)-6-phenoxy-isonicotinamide]",3.4
5,"COCCN(C)c1cc(C(=O)Nc2ccn(Cc3cccnc3)n2)cc(Oc2ccccc2)n1 [B4, 2-[(2-Methoxy-ethyl)-methyl-amino]-6-phenoxy-N-(1-pyridin-3-ylmethyl-1H-pyrazol-3-yl)-isonicotinamide]",1.8
6,"COCC(C)Oc1cc(OC(C)COC)nc(C(=O)Nc2ccn(C)n2)n1 (stereo not drawn) [B7, 4,6-Bis-(2-methoxy-1-methyl-ethoxy)-pyrimidine-2-carboxylic acid (1-methyl-1H-pyrazol-3-yl)-amide]",1.3
